Measured values taken from the supplement of paper PMC11208160.

Assay: recombinant barcode read abundance after kanamycin selection (control-corrected) (log10(CPM+1)); higher = more efficient recombination; sequences stand for … in AGTGCAGAGAAAATCGGCCAGTTTTCTCTGCCTGCAGTCCGCATGCCGT…ATTTATGCAGCGGACTGCCTTTCTCCCAAAGTGATAAACCGGACAGTATCATGGACCGGTTTTCCCGGTAATCCGTATTTGCAAGGTTGGTTTCACT; site = the 11-nt target
Outline: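 Targets were screened in pooled form in E. coli against IS621 bridge RNA target-binding loops. Recombination efficiency is based on barcode counts at recombinant junctions in counts per million, averaged and corrected for the control. Numbers are shown as log10(CPM+1), with duplicate plates on chloramphenicol/ampicillin LB agar (control) or chloramphenicol/ampicillin/kanamycin with 0.1 mM IPTG.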

| Sequence | recombinant barcode read abundance (log10) |
| --- | --- |
| TGATACCTTTGGGTTCTAACCTGTTGCGTAA [TGATACCCTAC_LTGcore_TT_RTGcore_TT] (site TGATACCCTAC) (LTG core: TT, RTG core: TT) | 0.0482 |
| GCGCGACCTTGGGTTCTAACCTGTTGCTTTC [GCGCGACCTAA_LTGcore_CT_RTGcore_GA] (site GCGCGACCTAA) (LTG core: CT, RTG core: GA) | 0.07 |
| GGGCGGACTTGGGTTCTAACCTGTTGCGGTT [GGGCGGACTCC_LTGcore_CT_RTGcore_AA] (site GGGCGGACTCC) (LTG core: CT, RTG core: AA) | 0.765 |
| AGGCCTCGGTGGGTTCTAACCTGTTGCCTAG [AGGCCTCCTAG_LTGcore_GG_RTGcore_CT] (site AGGCCTCCTAG) (LTG core: GG, RTG core: CT) | 1.04 |
| CATATTACTTGGGTTCTAACCTGTTGCCTGG [CATATTACTAG_LTGcore_CT_RTGcore_CC] (site CATATTACTAG) (LTG core: CT, RTG core: CC) | 0.0433 |
| GCGGGACCTTGGGTTCTAACCTGTTGCCTCC [GCGGGACCTAG_LTGcore_CT_RTGcore_GG] (site GCGGGACCTAG) (LTG core: CT, RTG core: GG) | 1.24 |
| CGCGCCCGGTGGGTTCTAACCTGTTGCGGCC [CGCGCCCCTCC_LTGcore_GG_RTGcore_GG] (site CGCGCCCCTCC) (LTG core: GG, RTG core: GG) | 0.307 |
| TCGCGACCATGGGTTCTAACCTGTTGCCGAG [TCGCGACCTCG_LTGcore_CA_RTGcore_CT] (site TCGCGACCTCG) (LTG core: CA, RTG core: CT) | 0.0739 |
| AGGCGGGTGTGGGTTCTAACCTGTTGCGGAG [AGGCGGGCTCC_LTGcore_TG_RTGcore_CT] (site AGGCGGGCTCC) (LTG core: TG, RTG core: CT) | 0.159 |
| GAGCCCATATGGGTTCTAACCTGTTGCCTAG [GAGCCCACTAG_LTGcore_TA_RTGcore_CT] (site GAGCCCACTAG) (LTG core: TA, RTG core: CT) | 0.101 |
| AGGCCTCTGTGGGTTCTAACCTGTTGCCTCA [AGGCCTCCTAG_LTGcore_TG_RTGcore_TG] (site AGGCCTCCTAG) (LTG core: TG, RTG core: TG) | 0.186 |
| GGGAGCCCTTGGGTTCTAACCTGTTGCTGTA [GGGAGCCCTCA_LTGcore_CT_RTGcore_TA] (site GGGAGCCCTCA) (LTG core: CT, RTG core: TA) | 0.029 |
| GAGGCCTGTTGGGTTCTAACCTGTTGCCAAC [GAGGCCTCTTG_LTGcore_GT_RTGcore_GT] (site GAGGCCTCTTG) (LTG core: GT, RTG core: GT) | 0.104 |
| GCGGGACTCTGGGTTCTAACCTGTTGCCTAG [GCGGGACCTAG_LTGcore_TC_RTGcore_CT] (site GCGGGACCTAG) (LTG core: TC, RTG core: CT) | 0.467 |
| GAGGCCTCTTGGGTTCTAACCTGTTGCCATA [GAGGCCTCTTG_LTGcore_CT_RTGcore_TA] (site GAGGCCTCTTG) (LTG core: CT, RTG core: TA) | 0.267 |
| CGCGCCCTGTGGGTTCTAACCTGTTGCGGAG [CGCGCCCCTCC_LTGcore_TG_RTGcore_CT] (site CGCGCCCCTCC) (LTG core: TG, RTG core: CT) | 0.301 |
| AAACATGCTTGGGTTCTAACCTGTTGCCTGG [AAACATGCTAG_LTGcore_CT_RTGcore_CC] (site AAACATGCTAG) (LTG core: CT, RTG core: CC) | 0.713 |
| TAGAGGGGATGGGTTCTAACCTGTTGCGGAG [TAGAGGGCTCC_LTGcore_GA_RTGcore_CT] (site TAGAGGGCTCC) (LTG core: GA, RTG core: CT) | 0.441 |
| CGAGCCCCTTGGGTTCTAACCTGTTGCTGTC [CGAGCCCCTCA_LTGcore_CT_RTGcore_GA] (site CGAGCCCCTCA) (LTG core: CT, RTG core: GA) | 0.248 |
| TAGAGGGCTTGGGTTCTAACCTGTTGCGGGA [TAGAGGGCTCC_LTGcore_CT_RTGcore_TC] (site TAGAGGGCTCC) (LTG core: CT, RTG core: TC) | 0.378 |
| TAGAGGGACTGGGTTCTAACCTGTTGCGGGT [TAGAGGGCTCC_LTGcore_AC_RTGcore_AC] (site TAGAGGGCTCC) (LTG core: AC, RTG core: AC) | 0.247 |
| GGGCGGACTTGGGTTCTAACCTGTTGCGGAG [GGGCGGACTCC_LTGcore_CT_RTGcore_CT] (site GGGCGGACTCC) (LTG core: CT, RTG core: CT) | 2.08 |
| GGCTCCCATTGGGTTCTAACCTGTTGCGGAG [GGCTCCCCTCC_LTGcore_AT_RTGcore_CT] (site GGCTCCCCTCC) (LTG core: AT, RTG core: CT) | 0.157 |

| Sequence | recombinant barcode read abundance (log10) |
| --- | --- |
| CGAGCCCGATGGGTTCTAACCTGTTGCTGTC [CGAGCCCCTCA_LTGcore_GA_RTGcore_GA] (site CGAGCCCCTCA) (LTG core: GA, RTG core: GA) | 0.188 |
| TCTACCCTCTGGGTTCTAACCTGTTGCTGAG [TCTACCCCTCA_LTGcore_TC_RTGcore_CT] (site TCTACCCCTCA) (LTG core: TC, RTG core: CT) | 0.0968 |
| AGTCTTACTTGGGTTCTAACCTGTTGCCAAT [AGTCTTACTTG_LTGcore_CT_RTGcore_AT] (site AGTCTTACTTG) (LTG core: CT, RTG core: AT) | 0.144 |
| ATGTCCCCGTGGGTTCTAACCTGTTGCTCCG [ATGTCCCCTGA_LTGcore_CG_RTGcore_CG] (site ATGTCCCCTGA) (LTG core: CG, RTG core: CG) | 0.163 |
| ATGCTTTCGTGGGTTCTAACCTGTTGCCTAG [ATGCTTTCTAG_LTGcore_CG_RTGcore_CT] (site ATGCTTTCTAG) (LTG core: CG, RTG core: CT) | 0.0216 |
| AGGCGGTCTTGGGTTCTAACCTGTTGCTTCT [AGGCGGTCTAA_LTGcore_CT_RTGcore_AG] (site AGGCGGTCTAA) (LTG core: CT, RTG core: AG) | 0.284 |
| CATATTAAATGGGTTCTAACCTGTTGCCTTT [CATATTACTAG_LTGcore_AA_RTGcore_AA] (site CATATTACTAG) (LTG core: AA, RTG core: AA) | 1.4 |
| CGAGCCCTGTGGGTTCTAACCTGTTGCTGCA [CGAGCCCCTCA_LTGcore_TG_RTGcore_TG] (site CGAGCCCCTCA) (LTG core: TG, RTG core: TG) | 0.646 |
| GGTGCCCCTTGGGTTCTAACCTGTTGCCGAC [GGTGCCCCTCG_LTGcore_CT_RTGcore_GT] (site GGTGCCCCTCG) (LTG core: CT, RTG core: GT) | 0.297 |
| GAGGCCTTTTGGGTTCTAACCTGTTGCCAAA [GAGGCCTCTTG_LTGcore_TT_RTGcore_TT] (site GAGGCCTCTTG) (LTG core: TT, RTG core: TT) | 0.0543 |
| CGAGCCCCTTGGGTTCTAACCTGTTGCTGGG [CGAGCCCCTCA_LTGcore_CT_RTGcore_CC] (site CGAGCCCCTCA) (LTG core: CT, RTG core: CC) | 0.164 |
| AAACAGTCTTGGGTTCTAACCTGTTGCCTGC [AAACAGTCTAG_LTGcore_CT_RTGcore_GC] (site AAACAGTCTAG) (LTG core: CT, RTG core: GC) | 1.44 |
| GAGCCCAGATGGGTTCTAACCTGTTGCCTTC [GAGCCCACTAG_LTGcore_GA_RTGcore_GA] (site GAGCCCACTAG) (LTG core: GA, RTG core: GA) | 0.057 |
| CGAGCCCCTTGGGTTCTAACCTGTTGCTGTT [CGAGCCCCTCA_LTGcore_CT_RTGcore_AA] (site CGAGCCCCTCA) (LTG core: CT, RTG core: AA) | 0.266 |
| AAACATGGATGGGTTCTAACCTGTTGCCTAG [AAACATGCTAG_LTGcore_GA_RTGcore_CT] (site AAACATGCTAG) (LTG core: GA, RTG core: CT) | 0.0906 |
| AGGCGGTCTTGGGTTCTAACCTGTTGCTTAG [AGGCGGTCTAA_LTGcore_CT_RTGcore_CT] (site AGGCGGTCTAA) (LTG core: CT, RTG core: CT) | 2.29 |
| TTATAAACTTGGGTTCTAACCTGTTGCCTAA [TTATAAACTAG_LTGcore_CT_RTGcore_TT] (site TTATAAACTAG) (LTG core: CT, RTG core: TT) | 0.0141 |
| ATGCTTTCCTGGGTTCTAACCTGTTGCCTGG [ATGCTTTCTAG_LTGcore_CC_RTGcore_CC] (site ATGCTTTCTAG) (LTG core: CC, RTG core: CC) | 0.0978 |
| AAACAGTAGTGGGTTCTAACCTGTTGCCTAG [AAACAGTCTAG_LTGcore_AG_RTGcore_CT] (site AAACAGTCTAG) (LTG core: AG, RTG core: CT) | 0.0711 |
| ATGCTTTTGTGGGTTCTAACCTGTTGCCTAG [ATGCTTTCTAG_LTGcore_TG_RTGcore_CT] (site ATGCTTTCTAG) (LTG core: TG, RTG core: CT) | 0.0287 |
| AGGCCTCCGTGGGTTCTAACCTGTTGCCTCG [AGGCCTCCTAG_LTGcore_CG_RTGcore_CG] (site AGGCCTCCTAG) (LTG core: CG, RTG core: CG) | 0.0742 |
| GAGTCCTGTTGGGTTCTAACCTGTTGCCTAC [GAGTCCTCTAG_LTGcore_GT_RTGcore_GT] (site GAGTCCTCTAG) (LTG core: GT, RTG core: GT) | 0.0554 |
